The text below walks through data of ChEMBL document CHEMBL1201862, “PubChem BioAssay data set” (2004).

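Five compound concentrations were applied to cells in 96-well plates for 48 hours; endpoints were derived by simple linear interpolation of the resulting dose-response curve. Here, GI50 denotes the concentration required for 50% inhibition of growth.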 Activity calls are given as the source filed them. No stated cut-off is given here; in the data, active = GI50 up to about 1.1 µM and inactive = higher.

Among the test systems are COLO 205; OVCAR-4; HCC 2998; MCF7; HOP-92; SK-MEL-28; TK-10; LOX IMVI; HCT-15; SF-268; Hs-578T; MDA-MB-435; Malme-3M; UACC-257; SF-295; HOP-62; NCI/ADR-RES; EKVX; SF-539; A498.
Holding throughout (assay): growth of human tumour cells (NCI), 48 h

As to `CCOC(=O)c1sc2c(c1O)c(=O)n(-c1ccccc1)c(=S)n2-c1ccccc1`, the GI50 in the assay on COLO 205 was > 100 µM (inactive); in the assay with OVCAR-4 it was > 100 µM (inactive); with HCC 2998, > 100 µM (inactive); in the assay with MCF7, 67.6 µM (inactive); in the assay on HOP-92, 86.1 µM (inactive); in the assay with SK-MEL-28, > 100 µM (inactive). Moreover, the GI50 in the assay with TK-10 was > 100 µM (inactive); with LOX IMVI, > 100 µM (inactive); with HCT-15, 78 µM; in the assay on SF-268 it was > 100 µM (inactive); with Hs-578T it was > 100 µM (inactive); in the assay with MDA-MB-435, > 100 µM (inactive). For the same compound, the GI50 in the assay with Malme-3M is > 100 µM (inactive); in the assay on UACC-257 it was > 100 µM (inactive); in the assay with SF-295 it was 35.5 µM (inactive).

In the case of `CC(C)(C)OC(=O)NCCNC(=O)OCc1ccccc1`, the GI50 in the assay on HOP-62, in the assay on NCI/ADR-RES, in the assay with EKVX, in the assay on COLO 205, in the assay on HCC 2998 and in the assay with MCF7 was > 100 µM (inactive) in each case. The GI50 was > 100 µM (inactive) with HOP-92; > 100 µM (inactive) in the assay with SK-MEL-28; > 100 µM (inactive) with TK-10; more than 100 µM in the assay with HCT-15; > 100 µM (inactive) with SF-268; > 100 µM (inactive) with Hs-578T. Further, the GI50 with MDA-MB-435, in the assay on Malme-3M, in the assay with UACC-257, in the assay with SF-295 and in the assay on SF-539 was > 100 µM (inactive) throughout.

As to `COC1(OC)CC(CO)(COc2cc(Cl)nc(N)n2)C1`, the GI50 with HOP-62, in the assay with NCI/ADR-RES, in the assay on EKVX, in the assay on COLO 205, with OVCAR-4 and in the assay on HCC 2998 was > 100 µM (inactive) each time. The GI50 in the assay on MCF7 is > 100 µM (inactive); with HOP-92, > 100 µM (inactive); with SK-MEL-28, > 100 µM (inactive); with TK-10 it was > 100 µM (inactive); in the assay on LOX IMVI, > 100 µM (inactive); with HCT-15, more than 100 µM. The GI50 with SF-268, with Hs-578T, in the assay with MDA-MB-435, in the assay on Malme-3M, with UACC-257 and in the assay with SF-295 was > 100 µM (inactive) each time. Further, the GI50 in the assay on SF-539 is > 100 µM (inactive).

`N#CCc1nc(-c2ccccc2)n[nH]1`: the GI50 is > 100 µM (inactive) in the assay on HOP-62; > 100 µM (inactive) in the assay on NCI/ADR-RES; 83.6 µM (inactive) in the assay with EKVX; > 100 µM (inactive) in the assay on COLO 205; > 100 µM (inactive) in the assay on OVCAR-4; > 100 µM (inactive) in the assay on HCC 2998. Further, the GI50 is > 100 µM (inactive) with MCF7; > 100 µM (inactive) in the assay on TK-10; > 100 µM (inactive) in the assay with LOX IMVI; more than 100 µM in the assay on HCT-15; > 100 µM (inactive) in the assay with SF-268; 77.4 µM (inactive) with Hs-578T. In addition, the GI50 in the assay on MDA-MB-435, with Malme-3M, in the assay with UACC-257, in the assay on SF-295 and in the assay on SF-539 was > 100 µM (inactive) in each case.

On to `CC(C)(C)C(=O)N(C(=S)OCc1ccccn1)c1ccccc1`, for which the GI50 is 13.2 µM (inactive) with HOP-62; 23.1 µM (inactive) with NCI/ADR-RES; 15.5 µM (inactive) with EKVX; 21.8 µM (inactive) with COLO 205; 19.8 µM (inactive) in the assay on MCF7; > 100 µM (inactive) in the assay on SK-MEL-28. For the same compound, the GI50 with TK-10 was > 100 µM (inactive); with LOX IMVI, 23.9 µM (inactive); in the assay with HCT-15 it was 30.1 µM; with SF-268, 36.1 µM (inactive); with Hs-578T, 39 µM (inactive); in the assay on MDA-MB-435, > 100 µM (inactive). Further, the GI50 with A498 is > 100 µM (inactive); with Malme-3M, 13.8 µM (inactive); with UACC-257, > 100 µM (inactive); with SF-539 it was 20.4 µM (inactive).

Take `COc1ccc(P2(=S)OC(C)(C)C(C)(C)O2)cc1`: the GI50 in the assay with HOP-62, in the assay with NCI/ADR-RES, in the assay on EKVX, in the assay on OVCAR-4, in the assay with MCF7 and with HOP-92 was > 100 µM (inactive) in each case. Besides, the GI50 with SK-MEL-28 is > 100 µM (inactive); in the assay on TK-10, > 100 µM (inactive); with LOX IMVI it was > 100 µM (inactive); with HCT-15 it was more than 100 µM; in the assay on Hs-578T it was > 100 µM (inactive); in the assay on MDA-MB-435 it was > 100 µM (inactive). The GI50 with Malme-3M, in the assay with UACC-257, in the assay with SF-295 and with SF-539 was > 100 µM (inactive) each time.

For the compound `C=CC1(c2ccc3ccccc3c2)OCC(CC)(CC)CO1`, the GI50 in the assay with HOP-62 is 27.4 µM (inactive); in the assay on NCI/ADR-RES, 30.1 µM (inactive); in the assay on COLO 205, 16.3 µM (inactive); in the assay on OVCAR-4, 41 µM (inactive); in the assay on HCC 2998 it was 20.9 µM (inactive); with MCF7, 37.6 µM (inactive). Further, the GI50 with HOP-92 is 23.4 µM (inactive); in the assay on SK-MEL-28 it was 39.4 µM (inactive); in the assay on TK-10, 37.5 µM (inactive); in the assay on LOX IMVI, 18.4 µM (inactive); with HCT-15, 17.9 µM; with SF-268, 33.3 µM (inactive). Besides, the GI50 with Hs-578T was 18.7 µM (inactive); in the assay on MDA-MB-435, 22.7 µM (inactive); in the assay on Malme-3M it was 28.2 µM (inactive); with UACC-257 it was 27.2 µM (inactive); in the assay with SF-295, 25.8 µM (inactive); in the assay on SF-539, 14.3 µM (inactive).

As to `COc1cc([C@@H]2c3cc4c(cc3[C@@H](Nc3ccc(NC(=O)c5cc(NC(=O)c6cc([N+](=O)[O-])cn6C)cn5C)cc3)[C@H]3COC(=O)[C@H]23)OCO4)cc(OC)c1O`, the GI50 with HOP-62 was 0.361 µM (active); in the assay with NCI/ADR-RES, 0.573 µM (active); in the assay on EKVX, > 40.1 µM (inactive); with COLO 205, 2.31 µM (inactive); in the assay on OVCAR-4 it was > 43.7 µM (inactive); in the assay on HCC 2998, 6.04 µM (inactive). Besides, the GI50 was 0.047 µM (active) in the assay on MCF7; 0.885 µM (active) in the assay on HOP-92; > 65.8 µM (inactive) in the assay on TK-10; 0.274 µM (active) in the assay with LOX IMVI; 5.73 µM in the assay with HCT-15; > 48.4 µM (inactive) with Hs-578T. Besides, the GI50 in the assay with A498 is 1.35 µM (inactive); in the assay on Malme-3M, 4.35 µM (inactive); in the assay with UACC-257 it was 0.687 µM (active); with SF-295, 1.57 µM (inactive); in the assay with SF-539 it was 0.364 µM (active).

For the compound `CC12ON(P(=O)(c3ccccc3)c3ccccc3)C(C)(c3ccccc31)c1ccccc12`, the GI50 with HOP-62 is > 100 µM (inactive); in the assay with NCI/ADR-RES, > 100 µM (inactive); in the assay on EKVX, > 100 µM (inactive); in the assay with COLO 205, > 100 µM (inactive); in the assay on OVCAR-4 it was 21.5 µM (inactive); in the assay on HCC 2998, > 100 µM (inactive). For the same compound, the GI50 is 0.675 µM (active) in the assay with MCF7; > 100 µM (inactive) in the assay with HOP-92; > 100 µM (inactive) in the assay on SK-MEL-28; > 100 µM (inactive) in the assay with TK-10; > 100 µM (inactive) in the assay on LOX IMVI; more than 100 µM in the assay on HCT-15. The GI50 in the assay on SF-268, in the assay on Hs-578T, in the assay with MDA-MB-435, with Malme-3M, with UACC-257 and in the assay with SF-295 was > 100 µM (inactive) throughout. Besides, the GI50 in the assay on SF-539 was > 100 µM (inactive).

`Cc1ccc(OCC2OC(n3cnc4c(Br)nc(Br)nc43)CC2Oc2ccc(C)cc2)cc1` (stereo unspecified): the GI50 in the assay with HOP-62 was 3.61 µM (inactive); with NCI/ADR-RES it was 9.59 µM (inactive); in the assay on EKVX, 2.05 µM (inactive); with COLO 205, 4.06 µM (inactive); in the assay on OVCAR-4, 3.12 µM (inactive); in the assay on HCC 2998, 2.6 µM (inactive). The GI50 in the assay on MCF7 was 4.32 µM (inactive); with HOP-92, 2.41 µM (inactive); in the assay with SK-MEL-28 it was 4.51 µM (inactive); with TK-10, 21.8 µM (inactive); in the assay on LOX IMVI, 1.93 µM (inactive); with HCT-15, 2.34 µM. Besides, the GI50 was 12.9 µM (inactive) with SF-268; 5.85 µM (inactive) with MDA-MB-435; 10.5 µM (inactive) with A498; 3.58 µM (inactive) with Malme-3M; 7.06 µM (inactive) in the assay on UACC-257; 8.49 µM (inactive) with SF-295. The GI50 with SF-539 was 2.19 µM (inactive).

For the compound `CCOC(=O)c1ccc(Nc2nc3ccccc3nc2C(=O)OCC)cc1`, the GI50 in the assay on HOP-62, with NCI/ADR-RES, in the assay with EKVX, in the assay with COLO 205, with OVCAR-4 and in the assay with HCC 2998 was > 100 µM (inactive) in each case. Also, the GI50 with MCF7 is > 100 µM (inactive); in the assay with HOP-92, 43.1 µM (inactive); with SK-MEL-28 it was > 100 µM (inactive); in the assay on TK-10, > 100 µM (inactive); in the assay with HCT-15, more than 100 µM; in the assay with SF-268, > 100 µM (inactive). Besides, the GI50 in the assay on Hs-578T was 59.6 µM (inactive); in the assay on MDA-MB-435, > 100 µM (inactive); in the assay with Malme-3M it was > 100 µM (inactive); in the assay on SF-539, > 100 µM (inactive).

On to `COc1cccc(/C=N/C(/N=C/c2cccc(OC)c2O)c2cccc(OC)c2O)c1O`, for which the GI50 is 29.4 µM (inactive) in the assay with HOP-62; 19.6 µM (inactive) in the assay with NCI/ADR-RES; 19.2 µM (inactive) in the assay on EKVX; 32.1 µM (inactive) in the assay with COLO 205; 18.8 µM (inactive) with HCC 2998; 18.9 µM (inactive) in the assay on MCF7. For the same compound, the GI50 was 31.7 µM (inactive) in the assay with HOP-92; 18.7 µM (inactive) in the assay with SK-MEL-28; 15.7 µM (inactive) with TK-10; 10.5 µM (inactive) in the assay on LOX IMVI; 7.5 µM with HCT-15; 10.6 µM (inactive) in the assay on SF-268. The GI50 with Hs-578T is 17.6 µM (inactive); in the assay with MDA-MB-435 it was 28.3 µM (inactive); with UACC-257, 23.1 µM (inactive); in the assay on SF-295 it was 23.6 µM (inactive); in the assay with SF-539, 20.1 µM (inactive).
